From publication PMC10656235, “Reversible and irreversible inhibitors of coronavirus Nsp15 endoribonuclease” (The Journal of Biological Chemistry, 2023)
Values joined by “and” are separate entries in the source; they are usually repeats but may differ in a detail not shown here. Equal entries are not always repeated. “Also recorded” adds a separate entry of the source. Where two headings read alike, the source gives them in different places.

Key:
Calu-3 cells = test system: Calu-3 cells; parameters: method as in PMID 33886614; details: cited from earlier work
SARS-CoV-2 Nsp15 [1] = target: T1, SARS-CoV-2 Nsp15 (Severe acute respiratory syndrome coronavirus 2, UniProt P0DTD1); test: Reversibility: reaction progress after dilution of preincubated enzyme-inhibitor complex; type: biochemical; details: 60 min preincubation, 1:50 dilution
SARS-CoV-2 = test: microbe, parasite or virus in culture; type: cell-based; details: for Viral titers at a single subtoxic concentration: MOI = 0.1, 24 h postinfection, vs DMSO; for Selectivity index: from CC50 and cellular IC50 in Vero CCL-81 cells
[2] = Cell cytotoxicity assay (CellTiter-Glo); details: African green monkey, CC50, 24 h
SARS-CoV-2 Nsp15 [3] = target: T1, SARS-CoV-2 Nsp15; test: FRET assay with nonionic detergent (colloidal aggregate test); type: biochemical; details: 0.01% Triton-X or CHAPS
SARS-CoV-2 Nsp15 [4] = target: T1, SARS-CoV-2 Nsp15; test: Nsp15 native RNA cleavage assay (denaturing PAGE, SYBR Gold); type: biochemical
SARS-CoV-2 Nsp15 [5] = target: T1, SARS-CoV-2 Nsp15; test: Nsp15 FRET-based activity assay; type: biochemical; details: for Nsp15 inhibition with 5′FAM and 5′Cy5 substrates and quenching: compounds at 25 μM and 50 μM
SARS-CoV-2 Nsp15 [6] = target: T1, SARS-CoV-2 Nsp15; test: biochemical; type: biochemical
SARS-CoV-2 Nsp15 [7] = target: T1, SARS-CoV-2 Nsp15; test: MALDI-TOF mass spectrometry of Nsp15 preincubated with compound; details: preincubation with fivefold molar excess of compound
in vitro = details: African green monkey
SARS-CoV-2 Nsp15 [8] = target: T1, SARS-CoV-2 Nsp15; test: Effect of DTT on compound inhibition of Nsp15; type: biochemical; details: 10 mM vs 1 mM DTT
MERS Nsp15 = MERS Nsp15 (Middle East respiratory syndrome-related coronavirus, UniProt K9N7C7); type: biochemical
Sequence of MERS Nsp15 (K9N7C7 6433-6775 limits assumed): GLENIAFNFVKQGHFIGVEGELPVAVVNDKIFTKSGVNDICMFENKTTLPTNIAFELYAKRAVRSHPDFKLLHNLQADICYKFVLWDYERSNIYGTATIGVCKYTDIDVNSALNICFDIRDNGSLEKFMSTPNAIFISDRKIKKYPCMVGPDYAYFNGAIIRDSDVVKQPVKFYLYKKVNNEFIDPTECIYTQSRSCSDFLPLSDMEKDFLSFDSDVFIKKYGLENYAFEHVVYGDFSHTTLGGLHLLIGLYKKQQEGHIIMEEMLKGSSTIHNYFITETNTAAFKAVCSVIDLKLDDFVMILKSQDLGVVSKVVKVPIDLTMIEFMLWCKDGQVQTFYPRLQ

SARS-CoV-1 Nsp15 = SARS-CoV-1 Nsp15 (Severe acute respiratory syndrome coronavirus, UniProt P0C6X7); type: biochemical
SARS-CoV-2 Nsp15 [9] = target: T1, SARS-CoV-2 Nsp15
[10] = Severe acute respiratory syndrome coronavirus 2, 24 h, read-out: IC50, viral inhibition, Vero CCL-81 cells, MOI = 0.1, 24 h infection
[11] = read-out: IC50, viral inhibition, Vero CCL-81 cells, MOI = 0.1, 24 h infection
[12] = 31-nt single rU RNA, 1 h at 37 °C
[13] = IC50, Nsp15 activity, FRET assay, Nsp15 1 ng/μl, ~12 min at 37 °C
[14] = RNA substrate titration 0 to 10 µM
[15] = extra sum-of-squares F test, highest inhibitor dose

Compound | Reversibility of inhibition (SARS-CoV-2 Nsp15 [1]) | Viral titers at a single subtoxic concentration (SARS-CoV-2; Vero CCL-81 cells) | CC50 at 24 h ([2]; Fig. S15) [µM] | Change of Nsp15 activity with inhibitor when detergent is present (SARS-CoV-2 Nsp15 [3]) | Inhibition of native RNA substrate cleavage (SARS-CoV-2 Nsp15 [4]; [12]) | IC50 (SARS-CoV-2 Nsp15 [5]; [13]) | Nsp15 inhibition with 5′FAM and 5′Cy5 substrates and quenching (SARS-CoV-2 Nsp15 [5]) | Ki (SARS-CoV-2 Nsp15 [6]) [µM] | Kinetic mechanism / predicted type of inhibition (SARS-CoV-2 Nsp15 [6]; [14]) | Km diff. vs DMSO (SARS-CoV-2 Nsp15 [6]; [15]) | Vmax diff. vs DMSO (SARS-CoV-2 Nsp15 [6]; [15]) | Inhibition of MERS Nsp15 (MERS Nsp15) | also measured
Exebryl-1 |  |  |  |  |  |  |  |  |  |  |  |  | EC50 (Calu-3 cells): ~65 µM
O=C1/C(=C/c2cc([N+](=O)[O-])cc(Br)c2O)SC(=S)N1Cc1ccccc1 [CID5675221] | Nsp15 activity was restored | significantly reduced viral titers | > 240 | increase in Nsp15 activity | dose-dependent effects | ~20 µM and 20.7 µM | inhibited Nsp15 using either substrate, without appreciable quenching | 6.71 ± 2.31 | mixed mechanisms of inhibition | Yes | Yes |  | IC50 (SARS-CoV-2; [10]): 19 ± 3.9 µM; Selectivity index (SARS-CoV-2): ~15; IC50 (SARS-CoV-2; [11]): ~20 µM and < 20 µM; CC50 at 24 h ([2]; measured in parallel with viral inhibition, Fig. 6): 290 ± 28 µM; Vmax (best-fit) (SARS-CoV-2 Nsp15 [6]; inhibitor 15µM): 0.21 µM/min; Vmax (best-fit) (SARS-CoV-2 Nsp15 [6]; inhibitor 30µM): 0.17 µM/min
Oc1ccc2ccccc2c1SSc1c(O)ccc2ccccc12 [IPA-3, reference compound] | irreversible | significantly reduced viral titers |  | increase in Nsp15 activity | dose-dependent effects |  | inhibited Nsp15 using either substrate, without appreciable quenching |  | noncompetitive | No | Yes | only modest effects; also recorded: reduced effect | Peak shift of Nsp15 versus apoprotein (SARS-CoV-2 Nsp15 [7]): ~333 Da; CC50 at 24 h (in vitro): 43 ± 4.8 µM; IC50 (SARS-CoV-2; Severe acute respiratory syndrome coronavirus 2, 24 h, Vero CCL-81 cells, MOI = 0.1, 24 h infection, read-out: IC50, viral inhibition): 8.5 ± 1.1 µM; IC50 (SARS-CoV-2; Vero CCL-81 cells, MOI = 0.1, 24 h infection, read-out: IC50, viral inhibition): 10 µM; Selectivity index (SARS-CoV-2): ~5; Effect of excess DTT on inhibition (SARS-CoV-2 Nsp15 [8]): excess DTT nearly completely reversed inhibition; Inhibition of SARS-CoV-1 Nsp15 (SARS-CoV-1 Nsp15): equal potency; IC50 (SARS-CoV-2 Nsp15 [5]; FRET assay, Nsp15 1 ng/μl, ~12 min at 37 °C, read-out: IC50, Nsp15 activity): ~7 µM and 6.8 µM; Ki (SARS-CoV-2 Nsp15 [6]; fit to Michaelis-Menten inhibition models, read-out: Computed Ki ± SE): 10.8 ± 0.87 µM; Vmax (best-fit) (SARS-CoV-2 Nsp15 [6]; inhibitor 5µM): 0.23 µM/min; Vmax (best-fit) (SARS-CoV-2 Nsp15 [6]; inhibitor 20µM): 0.11 µM/min
CC(=O)Nc1ccc(NS(=O)(=O)c2ccc3c(c2)C(=O)c2ccccc2C3=O)cc1 [CID5220994] | Nsp15 activity was restored | not statistically different from the control | 15 to 42 | higher increase in activity | dose-dependent effects | ~50 µM and 50.9 µM | inhibited Nsp15 using either substrate, without appreciable quenching | 72.9 ± 11.6 | competitive with substrate | Yes | No | only modest effects | Vmax (best-fit) (SARS-CoV-2 Nsp15 [6]; inhibitor 50µM): 0.31 µM/min; Vmax (best-fit) (SARS-CoV-2 Nsp15 [6]; inhibitor 100µM): 0.28 µM/min
CC1(C)CCC2=C(O1)c1ccccc1C(=O)C2=O [β-lapachone, reference compound] |  |  |  |  |  |  | inhibited Nsp15 using either substrate, without appreciable quenching |  |  |  |  |  | 
Oc1c(Cl)cc(Cl)c(Cl)c1Cc1c(O)c(Cl)cc(Cl)c1Cl [hexachlorophene, reference compound] | Nsp15 activity was restored | significantly reduced viral titers |  | increase in Nsp15 activity |  |  | inhibited Nsp15 using either substrate, without appreciable quenching | 1.23 ± 0.3 |  |  | Yes |  | IC50 (SARS-CoV-2; [10]): 0.91 ± 0.044 µM; IC50 (SARS-CoV-2; [11]): ~1 µM; Inhibition of native RNA substrate cleavage (SARS-CoV-2 Nsp15 [4]): dose-dependent effects; Inhibition of SARS-CoV-1 Nsp15 (SARS-CoV-1 Nsp15): less potent; IC50 (SARS-CoV-2 Nsp15 [5]; IC50, Nsp15 activity): ~1 µM and 1.6 µM and 1 to 2 µM; Kinetic mechanism / predicted type of inhibition (SARS-CoV-2 Nsp15 [6]): mixed mechanisms of inhibition; Km diff. vs DMSO (SARS-CoV-2 Nsp15 [6]): Yes; Vmax (best-fit) (SARS-CoV-2 Nsp15 [6]; inhibitor 3µM): 0.24 µM/min; Vmax (best-fit) (SARS-CoV-2 Nsp15 [6]; inhibitor 6µM): 0.19 µM/min; Kinetic mechanism / predicted type of inhibition (SARS-CoV-2 Nsp15 [6]; listed as Hexachlorophene): Mixed
5′-FAM-CAACUAAACGAAC-BHQ1-3′ [RNA2] |  |  |  |  |  |  |  |  |  |  |  |  | Vmax (SARS-CoV-2 Nsp15 [9]): ~0.3 µM/min; Km (SARS-CoV-2 Nsp15 [9]; read-out: Km of substrate): ~3 µM
CCC(CC)COC(=O)[C@H](C)N[P@](=O)(OC[C@H]1O[C@@](C#N)(c2ccc3c(N)ncnn23)[C@H](O)[C@@H]1O)Oc1ccccc1 [remdesivir] |  | significantly reduced viral titers |  |  |  |  |  |  |  |  |  |  | 
Nc1c(S(=O)(=O)O)cc(Nc2ccc(Nc3nc(Cl)nc(Nc4cccc(S(=O)(=O)O)c4)n3)c(S(=O)(=O)O)c2)c2c1C(=O)c1ccccc1C2=O [Reactive Blue 2, reference compound] |  |  |  |  | produced a fluorescent artifact |  | inhibited Nsp15 using either substrate, without appreciable quenching |  |  |  |  |  | 
O=C(N/N=C/c1ccccc1O)c1ccc(O)c(O)c1 [CID5266986] | Nsp15 activity was restored | not statistically different from the control | 15 to 42 | increase in Nsp15 activity | dose-dependent effects | ~78 µM and 78 µM | inhibited Nsp15 using either substrate, without appreciable quenching | 64.9 ± 16.9 | mixed mechanisms of inhibition | Yes | Yes | only modest effects | Vmax (best-fit) (SARS-CoV-2 Nsp15 [6]; inhibitor 125µM): 0.22 µM/min; Vmax (best-fit) (SARS-CoV-2 Nsp15 [6]; inhibitor 175µM): 0.21 µM/min
